From PMC2734176, “The Aurora Kinase in Trypanosoma brucei Plays Distinctive Roles in Metaphase-Anaphase Transition and Cytokinetic Initiation” (PLoS Pathogens, 2009)

Target: T1, TbAUK1 (recombinant GST-tagged TbAUK1) (Trypanosoma brucei, UniProt Q384J7)
T1 construct: gene AUK1; no tag cleavage mentioned; tested without TbCPC1/TbCPC2
T1 sequence (Q384J7 1-309): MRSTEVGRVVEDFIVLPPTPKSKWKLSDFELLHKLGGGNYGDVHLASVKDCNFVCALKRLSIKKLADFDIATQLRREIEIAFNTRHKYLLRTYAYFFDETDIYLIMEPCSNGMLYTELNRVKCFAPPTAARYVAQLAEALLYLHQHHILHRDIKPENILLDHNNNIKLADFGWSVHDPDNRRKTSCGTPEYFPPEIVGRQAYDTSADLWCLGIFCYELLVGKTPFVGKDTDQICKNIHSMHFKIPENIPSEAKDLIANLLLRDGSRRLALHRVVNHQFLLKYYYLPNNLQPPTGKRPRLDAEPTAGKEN
Experiment: in vitro kinase assay, […] phosphorylation of GST-histone H3, SDS-PAGE and Phosphor-Imager
Type: biochemical

## Cc1cc(Nc2cc(N3CCN(C)CC3)nc(Sc3ccc(NC(=O)C4CC4)cc3)n2)[nH]n1 [VX-680]
  IC50: 190 nM
